Article PMC6364417, “Kinase inhibitor library screening identifies synergistic drug combinations effective in sensitive and resistant melanoma cells” (Journal of Experimental & Clinical Cancer Research : CR, 2019)

Columns and labels:
Experiment in all cases: Kinase inhibitor library screening, PrestoBlue cell viability, 1 or 10 μM, 72 h
[1] = system: A375 cells (parental); conditions: for viability at 1 µM / viability at 10 µM: Homo sapiens, A-375, 72 h; for viability at 1 µM: read-out: cell viability, A375 Parental, 1μΜ; for viability at 10 µM: read-out: cell viability, A375 Parental, 10μΜ; for cell viability (kinase inhibitor library screening): A375 Parental
[2] = system: IGR37-GP cells (Dabrafenib-resistant); conditions: for viability at 1 µM / viability at 10 µM: Homo sapiens, IGR-37, 72 h; for viability at 1 µM: read-out: cell viability, IGR37 GP, 1μΜ; for viability at 10 µM: read-out: cell viability, IGR37 GP, 10μΜ; for cell viability (kinase inhibitor library screening): IGR37 GP
[3] = system: A375-GP cells (Dabrafenib-resistant); conditions: for viability at 1 µM / viability at 10 µM: Homo sapiens, A-375, 72 h; for viability at 1 µM: read-out: cell viability, A375 GP, 1μΜ; for viability at 10 µM: read-out: cell viability, A375 GP, 10μΜ; for cell viability (kinase inhibitor library screening): A375 GP
[4] = system: IGR37-XP cells (Vemurafenib-resistant); conditions: for viability at 1 µM / viability at 10 µM: Homo sapiens, IGR-37, 72 h; for viability at 1 µM: read-out: cell viability, IGR37 XP, 1μΜ; for viability at 10 µM: read-out: cell viability, IGR37 XP, 10μΜ; for cell viability (kinase inhibitor library screening): IGR37 XP
[5] = system: 501Mel-XP cells (Vemurafenib-resistant); conditions: for viability at 1 µM / viability at 10 µM: Homo sapiens; for viability at 1 µM: read-out: cell viability, 501Mel XP, 1μΜ; for viability at 10 µM: read-out: cell viability, 501Mel XP, 10μΜ; for cell viability (kinase inhibitor library screening): 501Mel XP
[6] = system: 501Mel cells (parental); conditions: for viability at 1 µM / viability at 10 µM: Homo sapiens; for viability at 1 µM: read-out: cell viability, 501Mel Parental, 1μΜ; for viability at 10 µM: read-out: cell viability, 501Mel Parental, 10μΜ; for cell viability (kinase inhibitor library screening): 501Mel Parental
Summary of the method: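 Values are % viability versus untreated wells, measured by PrestoBlue after a 72 h drug exposure. Screens covered the parental line plus sublines rendered resistant to Vemurafenib or Dabrafenib, each analysed in at least duplicate.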

[7] = system: IGR37 cells (parental); conditions: for viability at 1 µM / viability at 10 µM: Homo sapiens, IGR-37, 72 h; for viability at 1 µM: read-out: cell viability, IGR37 Parental, 1μΜ; for viability at 10 µM: read-out: cell viability, IGR37 Parental, 10μΜ; for cell viability (kinase inhibitor library screening): IGR37 Parental
[8] = system: 501Mel-GP cells (Dabrafenib-resistant); conditions: for viability at 1 µM / viability at 10 µM: Homo sapiens; for viability at 1 µM: read-out: cell viability, 501Mel GP, 1μΜ; for viability at 10 µM: read-out: cell viability, 501Mel GP, 10μΜ; for cell viability (kinase inhibitor library screening): 501Mel GP
[9] = system: A375-XP cells (Vemurafenib-resistant); conditions: for viability at 1 µM / viability at 10 µM: Homo sapiens, A-375, 72 h; for viability at 1 µM: read-out: cell viability, A375 XP, 1μΜ; for viability at 10 µM: read-out: cell viability, A375 XP, 10μΜ; for cell viability (kinase inhibitor library screening): A375 XP

O=C1Nc2ccccc2/C1=C1/Nc2ccccc2C1=O [Indirubin]
viability at 1 µM [1]: 101% | viability at 10 µM [1]: 95.1% | viability at 1 µM [2]: 94.7% | viability at 10 µM [2]: 91.3% | viability at 1 µM [3]: 95.3% | viability at 10 µM [3]: 96.4% | viability at 1 µM [4]: 95.7% | viability at 10 µM [4]: 75.6% | viability at 1 µM ([5]; 72 h): 88.9% | viability at 10 µM ([5]; 72 h): 70.4% | viability at 1 µM ([6]; 72 h): 104% | viability at 10 µM ([6]; 72 h): 101% | viability at 1 µM [7]: 100% | viability at 10 µM [7]: 105% | viability at 1 µM ([8]; 72 h): 102% | viability at 10 µM ([8]; 72 h): 91.5% | viability at 1 µM [9]: 102% | viability at 10 µM [9]: 103%

Nc1nc(Nc2ccc(S(N)(=O)=O)cc2)nn1C(=O)c1c(F)cccc1F [JNJ-7706621]
cell viability (kinase inhibitor library screening) ([1]; 10μΜ, 72 h): 5.3% | cell viability (kinase inhibitor library screening) ([1]; 1μΜ, 72 h): 89.1% | cell viability (kinase inhibitor library screening) ([2]; 1μΜ, 72 h): 99.1% | cell viability (kinase inhibitor library screening) ([2]; 10μΜ, 72 h): 18.2% | cell viability (kinase inhibitor library screening) ([3]; 1μΜ, 72 h): 89.4% | cell viability (kinase inhibitor library screening) ([3]; 10μΜ, 72 h): 3.0% | cell viability (kinase inhibitor library screening) ([4]; 1μΜ, 72 h): 106.1% | cell viability (kinase inhibitor library screening) ([4]; 10μΜ, 72 h): 2.5% | cell viability (kinase inhibitor library screening) ([5]; 1μΜ, 72 h): 97.8% | cell viability (kinase inhibitor library screening) ([5]; 10μΜ, 72 h): -0.273% | cell viability (kinase inhibitor library screening) ([6]; 10μΜ, 72 h): 0.466% | cell viability (kinase inhibitor library screening) ([7]; 1μΜ, 72 h): 95.5% | cell viability (kinase inhibitor library screening) ([7]; 10μΜ, 72 h): 9.4% | cell viability (kinase inhibitor library screening) ([8]; 1μΜ, 72 h): 110.0% | cell viability (kinase inhibitor library screening) ([8]; 10μΜ, 72 h): 0.28% | cell viability (kinase inhibitor library screening) ([9]; 1μΜ, 72 h): 93.1% | cell viability (kinase inhibitor library screening) ([9]; 10μΜ, 72 h): 5.9%

Cn1cc(-c2ccc3nnc(C(F)(F)c4ccc5ncccc5c4)n3n2)cn1 [JNJ-38877605]
cell viability (kinase inhibitor library screening) ([1]; 10μΜ, 72 h): 97.6% | cell viability (kinase inhibitor library screening) ([1]; 1μΜ, 72 h): 99.7% | cell viability (kinase inhibitor library screening) ([2]; 1μΜ, 72 h): 102.6% | cell viability (kinase inhibitor library screening) ([2]; 10μΜ, 72 h): 87.5% | cell viability (kinase inhibitor library screening) ([3]; 10μΜ, 72 h): 97.0% | cell viability (kinase inhibitor library screening) ([4]; 1μΜ, 72 h): 96.1% | cell viability (kinase inhibitor library screening) ([4]; 10μΜ, 72 h): 62.2% | cell viability (kinase inhibitor library screening) ([5]; 1μΜ, 72 h): 70.9% | cell viability (kinase inhibitor library screening) ([5]; 10μΜ, 72 h): 57.1% | cell viability (kinase inhibitor library screening) ([6]; 1μΜ, 72 h): 97.8% | cell viability (kinase inhibitor library screening) ([6]; 10μΜ, 72 h): 86.4% | cell viability (kinase inhibitor library screening) ([7]; 1μΜ, 72 h): 106.0% | cell viability (kinase inhibitor library screening) ([7]; 10μΜ, 72 h): 87.1% | cell viability (kinase inhibitor library screening) ([8]; 1μΜ, 72 h): 86.8% | cell viability (kinase inhibitor library screening) ([8]; 10μΜ, 72 h): 64.7% | cell viability (kinase inhibitor library screening) ([9]; 1μΜ, 72 h): 105.2% | cell viability (kinase inhibitor library screening) ([9]; 10μΜ, 72 h): 100.0%

CCCNC(=O)Nc1ccc(Oc2ncnc3cc(OC)c(OC)cc23)cc1Cl [KRN 633]
cell viability (kinase inhibitor library screening) ([1]; 1μΜ, in %): 103.4 | cell viability (kinase inhibitor library screening) ([1]; 10μΜ, in %): 92.6 | cell viability (kinase inhibitor library screening) ([2]; 1μΜ, in %): 92.2 | cell viability (kinase inhibitor library screening) ([2]; 10μΜ, in %): 93.4 | cell viability (kinase inhibitor library screening) ([3]; 1μΜ, in %): 99.0 | cell viability (kinase inhibitor library screening) ([3]; 10μΜ, in %): 89.8 | cell viability (kinase inhibitor library screening) ([4]; 1μΜ, in %): 98.3 | cell viability (kinase inhibitor library screening) ([4]; 10μΜ, in %): 68.5 | cell viability (kinase inhibitor library screening) ([5]; 10μΜ, in %): 80.1 | cell viability (kinase inhibitor library screening) ([6]; 1μΜ, in %): 94.4 | cell viability (kinase inhibitor library screening) ([6]; 10μΜ, in %): 91.7 | cell viability (kinase inhibitor library screening) ([7]; 1μΜ, in %): 99.7 | cell viability (kinase inhibitor library screening) ([7]; 10μΜ, in %): 109.9 | cell viability (kinase inhibitor library screening) ([8]; 1μΜ, in %): 106.2 | cell viability (kinase inhibitor library screening) ([8]; 10μΜ, in %): 89.7 | cell viability (kinase inhibitor library screening) ([9]; 10μΜ, in %): 103.6

O=c1cc(-c2cccc3c2Sc2ccccc2S3)oc(N2CCOCC2)c1 [KU-55933]
cell viability (kinase inhibitor library screening) ([1]; 10μΜ, 72 h): 90.0% | cell viability (kinase inhibitor library screening) ([1]; 1μΜ, 72 h): 105.8% | cell viability (kinase inhibitor library screening) ([2]; 1μΜ, 72 h): 98.2% | cell viability (kinase inhibitor library screening) ([2]; 10μΜ, 72 h): 67.8% | cell viability (kinase inhibitor library screening) ([3]; 1μΜ, 72 h): 92.9% | cell viability (kinase inhibitor library screening) ([3]; 10μΜ, 72 h): 89.1% | cell viability (kinase inhibitor library screening) ([4]; 1μΜ, 72 h): 105.2% | cell viability (kinase inhibitor library screening) ([4]; 10μΜ, 72 h): 34.9% | cell viability (kinase inhibitor library screening) ([5]; 1μΜ, 72 h): 87.7% | cell viability (kinase inhibitor library screening) ([5]; 10μΜ, 72 h): 65.9% | cell viability (kinase inhibitor library screening) ([6]; 10μΜ, 72 h): 90.2% | cell viability (kinase inhibitor library screening) ([7]; 1μΜ, 72 h): 113.8% | cell viability (kinase inhibitor library screening) ([7]; 10μΜ, 72 h): 80.4% | cell viability (kinase inhibitor library screening) ([8]; 1μΜ, 72 h): 98.9% | cell viability (kinase inhibitor library screening) ([8]; 10μΜ, 72 h): 76.6% | cell viability (kinase inhibitor library screening) ([9]; 1μΜ, 72 h): 104.1% | cell viability (kinase inhibitor library screening) ([9]; 10μΜ, 72 h): 92.4%

C[C@@H]1CN(CC(=O)Nc2ccc3c(c2)Cc2cccc(-c4cc(=O)cc(N5CCOCC5)o4)c2S3)C[C@H](C)O1 [KU-60019]
cell viability (kinase inhibitor library screening) ([1]; 10μΜ, 72 h): 78.4% | cell viability (kinase inhibitor library screening) ([2]; 1μΜ, 72 h): 92.9% | cell viability (kinase inhibitor library screening) ([3]; 1μΜ, 72 h): 100.5% | cell viability (kinase inhibitor library screening) ([3]; 10μΜ, 72 h): 68.6% | cell viability (kinase inhibitor library screening) ([4]; 10μΜ, 72 h): 34.1% | cell viability (kinase inhibitor library screening) ([5]; 1μΜ, 72 h): 91.4% | cell viability (kinase inhibitor library screening) ([5]; 10μΜ, 72 h): 36.5% | cell viability (kinase inhibitor library screening) ([6]; 1μΜ, 72 h): 90.0% | cell viability (kinase inhibitor library screening) ([6]; 10μΜ, 72 h): 71.5% | cell viability (kinase inhibitor library screening) ([7]; 10μΜ, 72 h): 97.6% | cell viability (kinase inhibitor library screening) ([8]; 1μΜ, 72 h): 103.1% | cell viability (kinase inhibitor library screening) ([8]; 10μΜ, 72 h): 54.1% | cell viability (kinase inhibitor library screening) ([9]; 10μΜ, 72 h): 74.4%

O=C(c1ccc(/C=C/c2n[nH]c3ccccc23)cc1)N1CCNCC1 [KW 2449]
viability at 1 µM [1]: 87.5% | viability at 10 µM [1]: 30.6% | viability at 1 µM [2]: 96.4% | viability at 10 µM [2]: 45.2% | viability at 1 µM [3]: 93.7% | viability at 10 µM [3]: 28% | viability at 1 µM [4]: 104% | viability at 10 µM [4]: 18% | viability at 1 µM ([5]; 72 h): 96.9% | viability at 10 µM ([5]; 72 h): 58% | viability at 1 µM ([6]; 72 h): 97.3% | viability at 10 µM ([6]; 72 h): 57.7% | viability at 1 µM [7]: 99.6% | viability at 10 µM [7]: 71.9% | viability at 1 µM ([8]; 72 h): 103% | viability at 10 µM ([8]; 72 h): 66.3% | viability at 1 µM [9]: 94.8% | viability at 10 µM [9]: 40.9%

COc1cc2nccc(Oc3ccc(NC(=O)Nc4ccc(F)cc4F)c(F)c3)c2cc1OC [Ki8751]
cell viability (kinase inhibitor library screening) ([1]; 1μΜ, in %): 96.1 | cell viability (kinase inhibitor library screening) ([1]; 10μΜ, in %): 75.1 | cell viability (kinase inhibitor library screening) ([2]; 1μΜ, in %): 88.2 | cell viability (kinase inhibitor library screening) ([2]; 10μΜ, in %): 88.8 | cell viability (kinase inhibitor library screening) ([3]; 1μΜ, in %): 94.2 | cell viability (kinase inhibitor library screening) ([3]; 10μΜ, in %): 77.5 | cell viability (kinase inhibitor library screening) ([4]; 1μΜ, in %): 88.9 | cell viability (kinase inhibitor library screening) ([4]; 10μΜ, in %): 70.9 | cell viability (kinase inhibitor library screening) ([5]; 1μΜ, in %): 89.9 | cell viability (kinase inhibitor library screening) ([5]; 10μΜ, in %): 74.9 | cell viability (kinase inhibitor library screening) ([6]; 1μΜ, in %): 96.7 | cell viability (kinase inhibitor library screening) ([6]; 10μΜ, in %): 85.3 | cell viability (kinase inhibitor library screening) ([7]; 1μΜ, in %): 93.0 | cell viability (kinase inhibitor library screening) ([7]; 10μΜ, in %): 84.9 | cell viability (kinase inhibitor library screening) ([8]; 1μΜ, in %): 97.3 | cell viability (kinase inhibitor library screening) ([8]; 10μΜ, in %): 80.7 | cell viability (kinase inhibitor library screening) ([9]; 10μΜ, in %): 97.9
